Target: Acetylcholinesterase (Electrophorus electricus, UniProt O42275)
Assay: Inhibition of eel AChE

Acetylcholinesterase, sequence (O42275 whole entry): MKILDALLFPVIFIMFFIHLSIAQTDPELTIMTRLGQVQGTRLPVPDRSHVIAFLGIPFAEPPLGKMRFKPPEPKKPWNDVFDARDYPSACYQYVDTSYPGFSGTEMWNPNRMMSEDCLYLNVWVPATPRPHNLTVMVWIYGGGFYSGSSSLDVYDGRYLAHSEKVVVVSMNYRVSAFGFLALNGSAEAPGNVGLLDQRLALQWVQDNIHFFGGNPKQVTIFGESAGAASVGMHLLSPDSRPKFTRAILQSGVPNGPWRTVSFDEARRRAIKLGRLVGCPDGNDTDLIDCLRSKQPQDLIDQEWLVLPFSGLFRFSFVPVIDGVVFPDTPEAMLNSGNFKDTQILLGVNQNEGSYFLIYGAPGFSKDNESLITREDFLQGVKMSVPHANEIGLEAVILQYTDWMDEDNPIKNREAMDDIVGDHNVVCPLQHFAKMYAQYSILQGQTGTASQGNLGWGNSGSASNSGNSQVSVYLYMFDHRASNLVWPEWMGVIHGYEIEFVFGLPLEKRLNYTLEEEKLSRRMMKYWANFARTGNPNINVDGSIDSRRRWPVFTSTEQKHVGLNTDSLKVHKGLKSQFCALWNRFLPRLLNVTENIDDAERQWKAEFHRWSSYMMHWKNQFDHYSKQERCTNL

`CCCCN1Cc2cc3c(cc2-c2cccc(CC)c21)OCO3` was tested, and the IC50 was 5.44 µM.

With `C=Cc1cccc2c1N(CCCCCC)Cc1cc3c(cc1-2)OCO3` the IC50 was < 5 µM.

Work on `CCCN1Cc2cc3c(cc2-c2cccc(CC)c21)OCO3` yielded an IC50 of 9.98 µM.

With `C=Cc1cccc2c1N(C)Cc1cc3c(cc1-2)OCO3` the IC50 was 2.89 µM.

`C=Cc1cccc2c1N(CCCC)Cc1cc3c(cc1-2)OCO3` was tested, and the IC50 was 2.66 µM.

`CCc1cccc2c1N(CC)Cc1cc3c(cc1-2)OCO3` was tested, and the IC50 was 8.82 µM.

In the case of `CCCCCCN1Cc2cc3c(cc2-c2cccc(CC)c21)OCO3`, the IC50 is reported as < 5 µM.

`C=Cc1cccc2c1N(CC)Cc1cc3c(cc1-2)OCO3` gave an IC50 of 8.35 µM.

For `C=Cc1cccc2c1N(CCC)Cc1cc3c(cc1-2)OCO3`, the IC50 was 10.6 µM.

With `CCCCCN1Cc2cc3c(cc2-c2cccc(CC)c21)OCO3` the IC50 was < 5 µM.

`CCc1cccc2c1N(C)Cc1cc3c(cc1-2)OCO3` gave an IC50 of 3 µM.

For `C=Cc1cccc2c1N(CCCCC)Cc1cc3c(cc1-2)OCO3`, the IC50 was < 5 µM.

From ChEMBL document CHEMBL1144549, “Preparation of secolycorines against acetylcholinesterase” (Bioorg Med Chem, 2007)
